Data as given in patent US8012463B2, “Coordination complex of diaminocyclohexaneplatinum(II) with block copolymer containing poly(carboxylic acid) segment and antitumor agent comprising the same” (Toudai TLO, Ltd., priority 2003, dated 2011).

Assays:
[1] = test system: mouse colon 26 (C-26) cell strain; test: Cytotoxicity in vitro, growth inhibition by MTT method; type: cell-based; details: C-26 cells
Description: Growth inhibiting activities of free CDDP, CDDP micelle, DACH Pt micelle, mixtures of DACH Pt micelle and CDDP micelle at various mixing ratios (1/3, 1/1 and 3/1) against mouse colon 26 (C-26) cell strain were evaluated with MTT method. 5,000 cells were cultured in a 96 well-multiplate supplied with 50 μl of RPMI 1640 medium containing 10% fetal bovine serum. The cells were exposed to drugs for 48 and 72 hours. MTT solution was added, and 150 μl of a solution containing 10 wt % of sodium dodecylsulfate (SDS) supplemented with 0.01M HCl was added after 6 hours. Viability of cells was then measured based on optical density at 570 nm of formazan produced after 24 hours.

[2] = test system: ascites sarcoma 180; details: cited from earlier work

With `N.N.[Cl][Pt][Cl]` [Free CDDP, Cisplatin] the IC50 ([1]; culture time 48 hours) was 1.5 µg/mL and the IC50 ([1]; culture time 72 hours) was 0.65 µg/mL.

In the case of `NC1CCCCC1N.O=C([O-])CC(=O)[O-].[Pt+2]` (centres unmarked) [Pt(malonato)-(dach)], the “therapeutic index relative to Pt(oxalato)-(cis-dach)” value ([2]; in vivo) is listed as “half or less” and the “ED90 dose compared with Pt(oxalato)-(dach)” value ([2]; ratio to Pt(oxalato)-(dach)) is listed as no less than 5 times.

For `O=C1[O][Pt-2]2([NH2+]C3CCCC[C@H]3[NH2+]2)[O]C1=O` (some centres unmarked) [Pt(oxalato)-(dach)], the ED90 ([2]; experimental animals bearing ascites sarcoma 180) is given as “excellent ED90”.
